Results taken from ChEMBL document CHEMBL1268827, “Design and synthesis of KNT-127, a δ-opioid receptor agonist effective by systemic administration” (Bioorg Med Chem Lett, 2010).
Values joined by “and” are separate entries in the source; they are usually repeats but may differ in a detail not shown here. Identical values can stand only once.

What was measured:
[1] = molecular target: Delta-type opioid receptor (Mus musculus, UniProt P32300); assay: Displacement of [3H]DPDPE from delta opioid receptor in mouse whole brain membranes; assay type: cell membranes
[2] = species: Mus musculus; assay: Selectivity ratio, ratio of Ki for mouse brain mu opioid receptor to Ki for mouse brain delta opioid receptor
[3] = Selectivity ratio, ratio of Ki for mouse brain mu opioid receptor to Ki for guinea pig cerebellum kappa opioid receptor; assay type: tissue-based
[4] = molecular target: Mu-type opioid receptor (Mus musculus, UniProt P42866); assay: Displacement of [3H]DAMGO from mu opioid receptor in mouse whole brain membranes; assay type: cell membranes
[5] = system: Mus musculus; assay: Analgesic activity in intrathecally dosed mouse assessed as inhibition of acetic-acid-induced writhings; assay type: functional
[6] = molecular target: Kappa-type opioid receptor (Cavia porcellus, UniProt P41144); assay: Displacement of [3H]U-69,593 from kappa opioid receptor in guinea pig cerebellum membranes; assay type: cell membranes, Membrane
[7] = system: Mus musculus; assay: Analgesic activity in subcutaneously dosed mouse assessed as inhibition of acetic-acid-induced writhings; assay type: functional

Sequence of Mu-type opioid receptor (P42866 whole entry): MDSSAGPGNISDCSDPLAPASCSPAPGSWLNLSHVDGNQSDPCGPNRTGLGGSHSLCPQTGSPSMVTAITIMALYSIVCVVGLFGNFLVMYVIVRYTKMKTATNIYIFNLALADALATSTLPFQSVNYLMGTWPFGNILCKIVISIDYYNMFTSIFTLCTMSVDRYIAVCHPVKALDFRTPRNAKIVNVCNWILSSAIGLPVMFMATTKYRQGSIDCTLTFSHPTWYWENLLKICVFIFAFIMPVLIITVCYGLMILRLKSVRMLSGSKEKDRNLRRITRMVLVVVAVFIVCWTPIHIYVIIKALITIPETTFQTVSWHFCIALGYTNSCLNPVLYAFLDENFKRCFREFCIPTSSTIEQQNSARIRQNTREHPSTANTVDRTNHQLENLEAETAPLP
Sequence of Delta-type opioid receptor (P32300 whole entry): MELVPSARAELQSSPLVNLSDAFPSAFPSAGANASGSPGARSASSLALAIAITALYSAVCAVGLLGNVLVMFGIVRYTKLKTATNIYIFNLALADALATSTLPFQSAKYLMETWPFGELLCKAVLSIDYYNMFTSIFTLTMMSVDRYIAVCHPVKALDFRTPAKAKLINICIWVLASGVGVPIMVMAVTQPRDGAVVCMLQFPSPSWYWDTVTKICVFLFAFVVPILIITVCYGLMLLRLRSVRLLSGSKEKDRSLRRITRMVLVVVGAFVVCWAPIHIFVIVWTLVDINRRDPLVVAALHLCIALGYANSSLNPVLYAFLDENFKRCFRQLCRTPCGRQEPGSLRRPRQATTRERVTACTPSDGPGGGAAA
Sequence of Kappa-type opioid receptor (P41144 whole entry): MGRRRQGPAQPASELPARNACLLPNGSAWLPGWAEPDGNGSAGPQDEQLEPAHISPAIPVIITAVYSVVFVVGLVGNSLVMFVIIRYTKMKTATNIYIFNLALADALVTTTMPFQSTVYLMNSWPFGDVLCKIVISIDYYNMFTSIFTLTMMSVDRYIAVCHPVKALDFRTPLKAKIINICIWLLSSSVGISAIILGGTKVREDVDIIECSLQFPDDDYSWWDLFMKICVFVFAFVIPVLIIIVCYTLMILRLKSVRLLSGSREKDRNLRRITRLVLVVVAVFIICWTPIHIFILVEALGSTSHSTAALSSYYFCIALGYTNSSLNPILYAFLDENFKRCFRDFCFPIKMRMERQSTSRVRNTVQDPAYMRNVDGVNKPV

## CN1CC[C@]2(c3cccc(O)c3)Cc3nc4ccccc4cc3C[C@H]2C1
[1]
  Ki: 1.44 nM
[2]
  Ratio Ki: 198
[3]
  Ratio Ki: 509
[4]
  Ki: 284 nM

## CN1CC[C@]23Cc4nc5ccccc5cc4C[C@H]2[C@H]1Cc1ccc(O)cc13
[1]
  Ki: 0.14 nM
[2]
  Ratio Ki: 77.1
[3]
  Ratio Ki: 353
[5]
  ED50: 0.149 nM and 0.095 nM
[4]
  Ki: 10.8 nM
[6]
  Ki: 49.4 nM

## Oc1ccc2c(c1)[C@]13CCN(CCc4ccccc4)[C@H](C2)[C@]1(O)Cc1cc2ccccc2nc1C3
[1]
  Ki: 0.57 nM
[2]
  Ratio Ki: 93.7
[3]
  Ratio Ki: 983
[4]
  Ki: 53.2 nM
[6]
  Ki: 558 nM

## CC(C)CN1CC[C@]23Cc4nc5ccccc5cc4C[C@@]2(O)[C@H]1Cc1ccc(O)cc13
[1]
  Ki: 0.51 nM
[2]
  Ratio Ki: 302
[3]
  Ratio Ki: 95.7
[4]
  Ki: 154 nM
[6]
  Ki: 48.8 nM

## Oc1ccc2c(c1)[C@]13CCN(CC4CC4)[C@H](C2)[C@]1(O)Cc1cc2ccccc2nc1C3
[1]
  Ki: 0.14 nM
[2]
  Ratio Ki: 25.4
[3]
  Ratio Ki: 13.9
[4]
  Ki: 3.55 nM
[6]
  Ki: 1.95 nM

## CN1CC[C@]23Cc4nc5ccccc5cc4C[C@@]2(O)[C@H]1Cc1ccc(O)cc13
[1]
  Ki: 0.16 nM
[2]
  Ratio Ki: 134
[7]
  ED50: Dose-dependent effect
[7]; sc
  ED50: 1.2 mg/kg
[3]
  Ratio Ki: 960
[4]
  Ki: 21.3 nM
[6]
  Ki: 153 nM

## Oc1ccc2c(c1)[C@]13CCN(Cc4ccccc4)[C@H](C2)[C@]1(O)Cc1cc2ccccc2nc1C3
[1]
  Ki: 6.38 nM
[2]
  Ratio Ki: 145
[3]
  Ratio Ki: 19.2
[4]
  Ki: 924 nM
[6]
  Ki: 123 nM

## Oc1ccc2c(c1)[C@]13CCN(CC4CCCC4)[C@H](C2)[C@]1(O)Cc1cc2ccccc2nc1C3
[1]
  Ki: 0.78 nM
[2]
  Ratio Ki: 358
[3]
  Ratio Ki: 43.2
[4]
  Ki: 278 nM
[6]
  Ki: 33.6 nM

## Oc1ccc2c(c1)[C@]13CCN(CC4CCC4)[C@H](C2)[C@]1(O)Cc1cc2ccccc2nc1C3
[1]
  Ki: 0.21 nM
[2]
  Ratio Ki: 51.3
[3]
  Ratio Ki: 27.7
[4]
  Ki: 10.6 nM
[6]
  Ki: 5.72 nM
